Assays:
[1] = test system: blackgrass; assay: Test Example 5: herbicidal effect by foliage application, plastic box (Table 20, symbol J); type: in vivo, blackgrass (Alopecurus myosuroides); conditions: foliage application
Method in brief: (§1)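 Plants sown in sterilized diluvial soil and grown 14 days in a greenhouse at 25° C to 30° C, then sprayed on the foliage with the compound's emulsion diluted in water to a predetermined herbicide amount. Injury to weeds and crops scored three weeks after application on a visual rating scale.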

[2] = test system: velvetleaf; assay: Test Example 4: herbicidal effect by soil treatment (Table 19, symbol M); type: in vivo, velvetleaf (Abutilon theophrasti)
Method in brief: (§2)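 Seeds were sown in sterilized diluvial soil and covered with about 1.5 cm of soil. An emulsion formulation diluted with water to a predetermined herbicide amount was sprayed evenly onto the soil surface. Plants grew in a greenhouse at 25° C. to 30° C., and the effect was scored three weeks after application using criteria from an earlier test.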

[3] = test system: lambsquarters; assay: Test Example 4: herbicidal effect by soil treatment (Table 19, symbol O); type: in vivo, lambsquarters (Chenopodium album)
Method in brief: as §2

[4] = test system: persian speedwell; assay: Test Example 4: herbicidal effect by soil treatment (Table 19, symbol R); type: in vivo, Persian speedwell (Veronica persica)
Method in brief: as §2

[5] = test system: green foxtail; assay: Test Example 4: herbicidal effect by soil treatment (Table 19, symbol G); type: in vivo, green foxtail (Setaria viridis)
Method in brief: as §2

[6] = test system: windgrass; assay: Test Example 5: herbicidal effect by foliage application, plastic box (Table 20, symbol L); type: in vivo, windgrass (Apera spica-venti); conditions: foliage application
Method in brief: as §1

[7] = test system: rice flat sedge; assay: Test Example 3: herbicidal effect by foliage application, Wagner pot (Table 18, symbol E); type: in vivo, rice flat sedge (Cyperus iria); conditions: 320 g/ha
Method in brief: (§3)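 Plants were sown in alluvial soil held under 0.1–0.5 cm standing water and grown 14 days in a greenhouse at 25–30 °C. An emulsifiable formulation, water-diluted to the set dose, was then sprayed onto the foliage, and effects were scored three weeks later using previously defined criteria.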

[8] = test system: chickweed; assay: Test Example 4: herbicidal effect by soil treatment (Table 19, symbol P); type: in vivo, common chickweed (Stellaria media)
Method in brief: as §2

[9] = test system: false cleavers; assay: Test Example 4: herbicidal effect by soil treatment (Table 19, symbol Q); type: in vivo, false cleavers (Galium spurium)
Method in brief: as §2

[10] = test system: redroot pigweed; assay: Test Example 5: herbicidal effect by foliage application, plastic box (Table 20, symbol N); type: in vivo, redroot pigweed (Amaranthus retroflexus); conditions: foliage application
Method in brief: as §1

[11] = test system: chickweed; assay: Test Example 5: herbicidal effect by foliage application, plastic box (Table 20, symbol P); type: in vivo, common chickweed (Stellaria media); conditions: foliage application
Method in brief: as §1

[12] = test system: lambsquarters; assay: Test Example 5: herbicidal effect by foliage application, plastic box (Table 20, symbol O); type: in vivo, lambsquarters (Chenopodium album); conditions: foliage application
Method in brief: as §1

[13] = test system: Italian ryegrass; assay: Test Example 4: herbicidal effect by soil treatment (Table 19, symbol K); type: in vivo, Italian ryegrass (Lolium multiflorum)
Method in brief: as §2

[14] = test system: Chinese sprangletop; assay: Test Example 3: herbicidal effect by foliage application, Wagner pot (Table 18, symbol D); type: in vivo, chinese sprangletop (Leptochloa chinensis); conditions: 320 g/ha
Method in brief: as §3

[15] = test system: wild oat; assay: Test Example 4: herbicidal effect by soil treatment (Table 19, symbol I); type: in vivo, wild oat (Avena fatua)
Method in brief: as §2

[16] = test system: false cleavers; assay: Test Example 5: herbicidal effect by foliage application, plastic box (Table 20, symbol Q); type: in vivo, false cleavers (Galium spurium); conditions: foliage application
Method in brief: as §1

[17] = test system: wild oat; assay: Test Example 5: herbicidal effect by foliage application, plastic box (Table 20, symbol I); type: in vivo, wild oat (Avena fatua); conditions: foliage application
Method in brief: as §1

[18] = test system: green foxtail; assay: Test Example 5: herbicidal effect by foliage application, plastic box (Table 20, symbol G); type: in vivo, green foxtail (Setaria viridis); conditions: foliage application
Method in brief: as §1

[19] = test system: windgrass; assay: Test Example 4: herbicidal effect by soil treatment (Table 19, symbol L); type: in vivo, windgrass (Apera spica-venti)
Method in brief: as §2

[20] = test system: barnyard grass; assay: Test Example 5: herbicidal effect by foliage application, plastic box (Table 20, symbol H); type: in vivo, barnyard grass (Echinochloa crus-galli); conditions: foliage application
Method in brief: as §1

[21] = test system: southern crabgrass; assay: Test Example 5: herbicidal effect by foliage application, plastic box (Table 20, symbol F); type: in vivo, southern crabgrass (Digitaria ciliaris); conditions: foliage application
Method in brief: as §1

[22] = test system: barnyard grass; assay: Test Example 4: herbicidal effect by soil treatment (Table 19, symbol H); type: in vivo, barnyard grass (Echinochloa crus-galli)
Method in brief: as §2

[23] = test system: blackgrass; assay: Test Example 4: herbicidal effect by soil treatment (Table 19, symbol J); type: in vivo, blackgrass (Alopecurus myosuroides)
Method in brief: as §2

[24] = test system: redroot pigweed; assay: Test Example 4: herbicidal effect by soil treatment (Table 19, symbol N); type: in vivo, redroot pigweed (Amaranthus retroflexus)
Method in brief: as §2

[25] = test system: barnyard grass; assay: Test Example 3: herbicidal effect by foliage application, Wagner pot (Table 18, symbol H); type: in vivo, barnyard grass (Echinochloa crus-galli); conditions: 320 g/ha
Method in brief: as §3

[26] = test system: velvetleaf; assay: Test Example 5: herbicidal effect by foliage application, plastic box (Table 20, symbol M); type: in vivo, velvetleaf (Abutilon theophrasti); conditions: foliage application
Method in brief: as §1

[27] = test system: persian speedwell; assay: Test Example 5: herbicidal effect by foliage application, plastic box (Table 20, symbol R); type: in vivo, Persian speedwell (Veronica persica); conditions: foliage application
Method in brief: as §1

[28] = test system: Italian ryegrass; assay: Test Example 5: herbicidal effect by foliage application, plastic box (Table 20, symbol K); type: in vivo, Italian ryegrass (Lolium multiflorum); conditions: foliage application
Method in brief: as §1

[29] = test system: southern crabgrass; assay: Test Example 4: herbicidal effect by soil treatment (Table 19, symbol F); type: in vivo, southern crabgrass (Digitaria ciliaris)
Method in brief: as §2

[30] = AAH 320 g/ha, three weeks after application
[31] = amount of applied herbicide 320 g/ha
[32] = 320 g/ha, evaluated three weeks after application

With `Cc1nn(C)c(=O)c(-c2c(-c3cccc4c3OCC4)sc3ccccc23)c1O` [1-103] the “J: blackgrass, herbicidal effect” value [1, 30] was 3 (Herbicidal rate of 40% or more and less than 70%), the “herbicidal effect rating, M: velvetleaf” value [2, 31] was 0 (Herbicidal rate of 5% or less (almost no effect)) and the “herbicidal effect rating, O: lambsquarters” value [3, 31] was 3 (Herbicidal rate of 40% or more and less than 70%). The “herbicidal effect rating, R: persian speedwell” value [4, 31] was 2 (Herbicidal rate of 20% or more and less than 40%), the “herbicidal effect rating, G: green foxtail” value [5, 31] was 3 (Herbicidal rate of 40% or more and less than 70%) and the “L: windgrass, herbicidal effect” value [6, 30] was 0 (Herbicidal rate of 5% or less (almost no effect)). The “herbicidal effect on E (rice flat sedge), rating 0-5” value [7] was 3 (Herbicidal rate of 40% or more and less than 70%), the “herbicidal effect rating, P: chickweed” value [8, 31] was 1 (Herbicidal rate of 5% or more and less than 20%) and the “herbicidal effect rating, Q: false cleavers” value [9, 31] was 0 (Herbicidal rate of 5% or less (almost no effect)). For the same molecule, the “N: redroot pigweed, herbicidal effect” value [10, 30] was 3 (Herbicidal rate of 40% or more and less than 70%), the “P: chickweed, herbicidal effect” value [11, 30] was 5 (Herbicidal rate of 90% or more (almost completely withered)) and the “O: lambsquarters, herbicidal effect” value [12, 30] was 3 (Herbicidal rate of 40% or more and less than 70%). For the same molecule, the “herbicidal effect rating, K: Italian ryegrass” value [13, 31] was 0 (Herbicidal rate of 5% or less (almost no effect)), the “herbicidal effect on D (Chinese sprangletop), rating 0-5” value [14] was 4 (Herbicidal rate of 70% or more and less than 90%) and the “herbicidal effect rating, I: wild oat” value [15, 31] was 0 (Herbicidal rate of 5% or less (almost no effect)). The “Q: false cleavers, herbicidal effect” value [16, 30] was 4 (Herbicidal rate of 70% or more and less than 90%), the “I: wild oat, herbicidal effect” value [17, 30] was 0 (Herbicidal rate of 5% or less (almost no effect)) and the “G: green foxtail, herbicidal effect” value [18, 30] was 3 (Herbicidal rate of 40% or more and less than 70%). For the same molecule, the “herbicidal effect rating, L: windgrass” value [19, 31] was 0 (Herbicidal rate of 5% or less (almost no effect)), the “H: barnyard grass, herbicidal effect” value [20, 30] was 0 (Herbicidal rate of 5% or less (almost no effect)) and the “F: southern crabgrass, herbicidal effect” value [21, 30] was 3 (Herbicidal rate of 40% or more and less than 70%). The “herbicidal effect rating, H: barnyard grass” value [22, 31] was 2 (Herbicidal rate of 20% or more and less than 40%), the “herbicidal effect rating, J: blackgrass” value [23, 31] was 0 (Herbicidal rate of 5% or less (almost no effect)) and the “herbicidal effect rating, N: redroot pigweed” value [24, 31] was 3 (Herbicidal rate of 40% or more and less than 70%). For the same molecule, the “herbicidal effect on H (barnyard grass), rating 0-5” value [25] was 3 (Herbicidal rate of 40% or more and less than 70%), the “M: velvetleaf, herbicidal effect” value [26, 30] was 4 (Herbicidal rate of 70% or more and less than 90%) and the “R: persian speedwell, herbicidal effect” value [27, 30] was 5 (Herbicidal rate of 90% or more (almost completely withered)). For the same molecule, the “K: Italian ryegrass, herbicidal effect” value [28, 30] was 3 (Herbicidal rate of 40% or more and less than 70%) and the “herbicidal effect rating, F: southern crabgrass” value [29, 31] was 2 (Herbicidal rate of 20% or more and less than 40%).

`CCCC(=O)Oc1c(C)nn(C)c(=O)c1-c1c(-c2ccc(F)cc2)sc2ccc(Cl)cc12` [2-098] was tested, and the “herbicidal effect on J: blackgrass” value [1, 32] was 4 (Herbicidal rate of 70% or more and less than 90%), the “herbicidal effect rating, M: velvetleaf” value ([2]; 320 g/ha) was 3 (Herbicidal rate of 40% or more and less than 70%) and the “herbicidal effect rating, O: lambsquarters” value ([3]; 320 g/ha) was 4 (Herbicidal rate of 70% or more and less than 90%). For the same molecule, the “herbicidal effect rating, R: persian speedwell” value ([4]; 320 g/ha) was 4 (Herbicidal rate of 70% or more and less than 90%), the “herbicidal effect rating, G: green foxtail” value ([5]; 320 g/ha) was 0 (Herbicidal rate of 5% or less (almost no effect)) and the “herbicidal effect on L: windgrass” value [6, 32] was 5 (Herbicidal rate of 90% or more (almost completely withered)). The “herbicidal effect on E (rice flat sedge), rating 0-5” value [7] was 2 (Herbicidal rate of 20% or more and less than 40%), the “herbicidal effect rating, P: chickweed” value ([8]; 320 g/ha) was 4 (Herbicidal rate of 70% or more and less than 90%) and the “herbicidal effect rating, Q: false cleavers” value ([9]; 320 g/ha) was 2 (Herbicidal rate of 20% or more and less than 40%). For the same molecule, the “herbicidal effect on N: redroot pigweed” value [10, 32] was 5 (Herbicidal rate of 90% or more (almost completely withered)), the “herbicidal effect on P: chickweed” value [11, 32] was 5 (Herbicidal rate of 90% or more (almost completely withered)) and the “herbicidal effect on O: lambsquarters” value [12, 32] was 4 (Herbicidal rate of 70% or more and less than 90%). The “herbicidal effect rating, K: Italian ryegrass” value ([13]; 320 g/ha) was 5 (Herbicidal rate of 90% or more (almost completely withered)), the “herbicidal effect on D (Chinese sprangletop), rating 0-5” value [14] was 4 (Herbicidal rate of 70% or more and less than 90%) and the “herbicidal effect rating, I: wild oat” value ([15]; 320 g/ha) was 2 (Herbicidal rate of 20% or more and less than 40%). For the same molecule, the “herbicidal effect on Q: false cleavers” value [16, 32] was 3 (Herbicidal rate of 40% or more and less than 70%), the “herbicidal effect on I: wild oat” value [17, 32] was 5 (Herbicidal rate of 90% or more (almost completely withered)) and the “herbicidal effect on G: green foxtail” value [18, 32] was 4 (Herbicidal rate of 70% or more and less than 90%). For the same molecule, the “herbicidal effect rating, L: windgrass” value ([19]; 320 g/ha) was 3 (Herbicidal rate of 40% or more and less than 70%), the “herbicidal effect on H: barnyard grass” value [20, 32] was 4 (Herbicidal rate of 70% or more and less than 90%) and the “herbicidal effect on F: southern crabgrass” value [21, 32] was 5 (Herbicidal rate of 90% or more (almost completely withered)). For the same molecule, the “herbicidal effect rating, H: barnyard grass” value ([22]; 320 g/ha) was 1 (Herbicidal rate of 5% or more and less than 20%), the “herbicidal effect rating, J: blackgrass” value ([23]; 320 g/ha) was 0 (Herbicidal rate of 5% or less (almost no effect)) and the “herbicidal effect rating, N: redroot pigweed” value ([24]; 320 g/ha) was 4 (Herbicidal rate of 70% or more and less than 90%). The “herbicidal effect on H (barnyard grass), rating 0-5” value [25] was 5 (Herbicidal rate of 90% or more (almost completely withered)), the “herbicidal effect on M: velvetleaf” value [26, 32] was 4 (Herbicidal rate of 70% or more and less than 90%) and the “herbicidal effect on R: persian speedwell” value [27, 32] was 5 (Herbicidal rate of 90% or more (almost completely withered)). For the same molecule, the “herbicidal effect on K: Italian ryegrass” value [28, 32] was 5 (Herbicidal rate of 90% or more (almost completely withered)) and the “herbicidal effect rating, F: southern crabgrass” value ([29]; 320 g/ha) was 3 (Herbicidal rate of 40% or more and less than 70%).
